Measured values reported in patent US7041869B2, “Transgenic luciferase mouse” (Sloan-Kettering Institute for Cancer Research, priority 2002, dated 2006).
“Also recorded” adds a separate entry of the source.

Key:
PDGF-driven gliomas = experiment: Elux bioluminescence imaging of PDGF-induced gliomas during treatment; assay type: in vivo, mice
Protocol: As an illustration of the use of Elux in somatic cell gene transfer models, the inventors have generated gliomas in mice harboring the Elux transgene. The Elux transgenic line was crossed with the Ntv-a transgenic mouse line. These doubly transgenic mice were then infected at birth with RCAS-PDGF. The mice were injected intracranially with one microliter containing 10^4 DF-1 cells, a chicken fibroblast cell line that are infected with and producing the RCAS-PDGF virus. This vector encodes the PDGF B coding region downstream of the env gene and expressed from the LTR on a message that splices out the viral genes. The injection passed through the striatum, just anterior to the ventricle, until the tip of the needle just touches the skull base. The producer cells survived for only a few days within the parenchyma of the mouse brain and during this time they produced virus and infected adjacent cells expressing the receptor for RCAS, tv-a. The mice were then observed for the development of signs of intracranial pathology including weight loss, lethargy, and macrocephaly. These mice were analyzed for expression of luciferase by i.v. injection with luciferin and imaging for bioluminescence with a CCD camera as discussed in detail below.
Animals were weighed prior to the acquisition session for proper dosage calculations. […] The solution was sterilized by filtration through 0.22 μm syringe filter. Individual dosages were drawn into sterile insulin syringes for each animal based on the body weight. Prior to the injection, individual syringes were kept in dark.
Oxygen flow was turned on and set for 1 l/min flow. […] For the induction of anesthesia, the animal was placed into the induction chamber and general activity and respiration rate were monitored. […]
Bioluminescent acquisition was performed according to the IVIS™ Imaging System (Xenogen). […] It was selected empirically, based on prior in vitro characterization of luminescence of transfected cells and the intensity of luminescence signal obtained from the current study. […]

[1] = system: PDGF signaling in glial cell culture; settings: previously demonstrated; cited from earlier work

Clc1ccc(Nc2nnc(Cc3ccncc3)c3ccccc23)cc1 [PTK787]
loss in light emission (bioluminescence) (PDGF-driven gliomas; Ntv-a/Elux bitransgenic mice with RCAS-PDGF gliomas, 25 mg/kg i.p. daily, in 24–36 hours): 50%
relative falloff of light production across tumors of various light outputs (PDGF-driven gliomas; four consecutive mice with PDGF-induced gliomas, bioluminescence quantified daily during treatment): essentially parallel responses of decreases in light emission over time; also recorded: proportionally similar
effect on PDGF signaling in glial cell culture [1]: capable of reversing the effects of PDGF signaling
